Where two headings read alike, the source gives them in different places. Bounds are passed on as bounds.

For one test, the system named is SW620 (metastatic colon). Put plainly: MTS short-term cytotoxicity assay, SW620. The test is classed as cell-based. To be noted: Homo sapiens, read-out: IC50 SW620. The method, then:
Short-term anti-proliferative assays were carried out by two different assays using a panel of human cancer and non-malignant human cell lines. […] The transformed human embryonic kidney cell line HEK293T (wt KRAS) was sensitive to all tested drugs, including TMPyP4, a cationic porphyrin established as a G4 ligand, as well as the anticancer drug 5-fluorouracil (5-FU).
HCT116 human colon carcinoma cells, SW620 human colorectal adenocarcinoma and HEK293 T human embryonic kidney cells were grown in Dulbecco's modified Eagle's medium (DMEM) supplemented with 10% fetal bovine serum, and 1% antibiotic/antimycotic (Invitrogen, Grand Island, NY, USA) and maintained at 37°C in a humidified atmosphere of 5% CO2. Cells were seeded in 96 well plates at 5.000 cells/well. Twenty-four hours after cell plating, media was removed and replaced with fresh media containing test compounds and 5-FU (Sigma), a common cytotoxic agent used in colon cancer treatmen, or vehicle control (DMSO). Following 72 h of compound exposure, cell viability was evaluated using the CellTiter 96 AQueous Non-Radioactive Cell Proliferation Assay (Promega, Madison, WI, USA), using 3-(4,5-dimethylthiazol-2-yl)-5-(3-carboxymethoxyphenyl)-2-(4-sulfophenyl)-2H-tetrazolium, inner salt (MTS) as previously described. Cell viability data were expressed as mean ± SEM or mean ± SD from at least three independent experiments. IC50 and IC65 values were determined using GaphPad Prism v.5.00 (GraphPad Software). (Performed at Cell Function and Therapeutic Targeting Group, iMed.ULisboa)

Test [1] deals with human KRAS promoter (pGL-Ras0.5, pGL-Ras2.0). Put plainly: KRAS promoter luciferase reporter assay in HEK293T cells. The test is classed as cell-based. As to conditions: equitoxic (IC50) concentrations, 72 h, vs DMSO. The text has this:
A first evaluation of the compounds' ability to down-regulate KRAS gene transcription by directly acting on the KRAS promoter was undertaken with a luciferase reporter assay. For this purpose two different size wild-type promoter constructs were used, containing the G4 sequence and cloned into the Firefly luciferase pGL3 Basic backbone (pGL-Ras0.5, PGL-Ras2.0). These and pGL3 Basic empty (Firefly Luciferase negative control/no promoter) were co-transfected into HEK293T cells together with Renilla luciferase pRL-TK (transfection efficiency normalization) as a G4 negative control. […] In general, the data in Figure 5 clearly portraits a reduction of luciferase activity by ~25–50% when compared to Renilla basal levels induced by all G4 ligands.
Figure 5 KRAS promoter activity is decreased following exposure of HEK293T cells lines to equitoxic (IC50) concentrations of compounds TMPyP4, 2d, 3d and 3e. Cells were co-transfected with pGL3-basic vector (empty vector control), or with KRAS promoter luciferase reporter construct PGL-Ras0.5, or PGL-Ras2.0, together with pRL-TK. Twenty-four h later, cells were replated in 96 wells plates, at 5000 cells per well. […] KRAS promoter activity levels were evaluated by Dual-Luciferase assay 72 h after compound exposure. Results are expressed as the luciferase signal ratio of pGL-Ras2.0 or pGL-Ras0.5 to pGL3-basic vector transfected cells, after normalization with Renilla Luciferase. The results are expressed as the mean ± SEM fold-change compared to DMSO exposure, from three independent experiments. *p < 0.05 and § p < 0.01 from DMSO vehicle control.
HEK293T cells were seeded in 35 mm plates at 150000 cells per well. 24 h later, cells were transiently co-transfected with pGL3-basic vector (empty vector control), or with KRAS promoter luciferase reporter construct pGL-Ras0.5, or pGL-Ras2.0, together with pRL-TK (Promega, Madison, WI, USA). KRAS promotor luciferase reporters respectively harbour 500 bp and 2000 bp of the human KRAS promotor region, and were previously described elsewhere. pGL3 Basic empty was used as negative control, and pRL-TK simultaneously for transfection efficiency normalization and as a G4 negative control. […] Transfections were performed using Lipofectamine 2000 (Invitrogen), according to the manufacturer's instructions. […] Finally, 72 h after compound incubation, cells were lysed and firefly and Renilla luciferase activities were measured using the Dual-Luciferase®Reporter Assay System (Promega). KRAS promoter activity levels were expressed as the luciferase signal ratio of pGL-Ras2.0 or pGL-Ras0.5 to pGL3-basic vector transfected cells, after normalization with Renilla Luciferase. The results are expressed as the mean ± SEM fold-change compared to DMSO exposure, from three independent experiments.

Take `Cn1cc2c3ccccc3nc-2c2cc(Br)ccc21` [2a, 2-bromo-5-methyl-indolo[3,2-c]quinoline]: the IC50 with SW620 (metastatic colon) (SW-620, MTS assay, 72 h) is 200 nM. With `CCN(CC)CCCNc1ccc2c(c1)c1[nH]c3ccccc3c1c[n+]2C` [2d], the IC50 in the test with SW620 (metastatic colon) (SW-620, MTS assay, 72 h) stood at 590 nM. In addition, the “Reduction of KRAS promoter (luciferase) activity” value (from here on “Reduction of KRAS promoter”) in test [1] is recorded as “up to 50%”. For `C[n+]1ccc(-c2c3nc(c(-c4cc[n+](C)cc4)c4ccc([nH]4)c(-c4cc[n+](C)cc4)c4ccc([nH]4)c(-c4cc[n+](C)cc4)c4nc2C=C4)C=C3)cc1` [TMPyP4, reference compound], in the test on SW620 (metastatic colon) (SW-620, 72 h), the half-inhibitory concentration (IC50) was more than 20000 nM. Further, the “Reduction of KRAS promoter” value in test [1] is listed as 25%. For the molecule `CCN(CC)CCCNc1ccc2[nH]c3c(c[n+](C)c4ccc(NCCCN(CC)CC)cc34)c2c1.[Cl-]` [3d], the half-maximal inhibitory concentration (IC50) with SW620 (metastatic colon) (SW-620, MTS assay, 72 h) amounted to 4740 nM. Further, the “Reduction of KRAS promoter” value in test [1] is “up to 50%”. The like results for `CCN(CC)CCCNc1ccc2c(c1)[nH]c1c2c[n+](C)c2ccc(NCCCN(CC)CC)cc12.[Cl-]` [3e] were, in that order, 1790 nM and “up to 50%”.

As usually defined, the IC50 is the concentration that inhibits the measured activity by half.

The record behind these values is PMC5382548 (Scientific Reports, 2015).
